How the values were obtained:
Type in all cases: functional
SNB-19 [1] = assay: Growth inhibition of human SNB19 cells assessed as cell growth at 10^-8 M by sulforhodamine B assay; settings: read-out: Activity
[2] = Growth inhibition of human HCC2998 cells assessed as cell growth at 10^-8 M by sulforhodamine B assay; settings: HCC 2998, read-out: Activity
NCI-H23 [3] = assay: Growth inhibition of human NCI-H23 cells assessed as cell growth at 10^-8 M by sulforhodamine B assay; settings: read-out: Activity
SR = assay: Growth inhibition of human SR cells assessed as cell growth at 10^-8 M by sulforhodamine B assay; settings: read-out: Activity
CCRF-CEM = assay: Growth inhibition of human CCRF-CEM cells assessed as cell growth at 10^-8 M by sulforhodamine B assay; settings: read-out: Activity
T47D [4] = assay: Growth inhibition of human T47D cells by sulforhodamine B assay
A498 = assay: Growth inhibition of human A498 cells by sulforhodamine B assay
UACC-257 = assay: Growth inhibition of human UACC257 cells by sulforhodamine B assay
MDA-MB-435 = assay: Growth inhibition of human MDA-MB-435 cells by sulforhodamine B assay
SK-OV-3 = assay: Growth inhibition of human SKOV3 cells assessed as cell growth at 10^-4 M by sulforhodamine B assay; settings: read-out: Activity
OVCAR-8 = assay: Growth inhibition of human OVCAR8 cells assessed as cell growth at 10^-4 M by sulforhodamine B assay; settings: read-out: Activity
SK-MEL-5 = assay: Growth inhibition of human SK-MEL-5 cells assessed as cell growth at 10^-4 M by sulforhodamine B assay; settings: read-out: Activity
M14 [5] = assay: Growth inhibition of human M14 cells assessed as cell growth at 10^-4 M by sulforhodamine B assay; settings: read-out: Activity
LOX IMVI = assay: Growth inhibition of human LOXIMVI cells assessed as cell growth at 10^-4 M by sulforhodamine B assay; settings: read-out: Activity
SNB-75 = assay: Growth inhibition of human SNB75 cells assessed as cell growth at 10^-4 M by sulforhodamine B assay; settings: read-out: Activity
SNB-19 [6] = assay: Growth inhibition of human SNB19 cells assessed as cell growth at 10^-4 M by sulforhodamine B assay; settings: read-out: Activity
COLO 205 = assay: Growth inhibition of human COLO205 cells assessed as cell growth at 10^-4 M by sulforhodamine B assay; settings: read-out: Activity
HOP-92 = assay: Growth inhibition of human HOP92 cells assessed as cell growth at 10^-4 M by sulforhodamine B assay; settings: read-out: Activity
RPMI-8226 = assay: Growth inhibition of human RPMI8226 cells assessed as cell growth at 10^-4 M by sulforhodamine B assay; settings: read-out: Activity
[7] = Growth inhibition of human Hs 578T cells assessed as cell growth at 10^-6 M by sulforhodamine B assay; settings: read-out: Activity
RXF 393 [8] = assay: Growth inhibition of human RXF393 cells assessed as cell growth at 10^-6 M by sulforhodamine B assay; settings: read-out: Activity
OVCAR-5 [9] = assay: Growth inhibition of human OVCAR5 cells assessed as cell growth at 10^-6 M by sulforhodamine B assay; settings: read-out: Activity
M14 [10] = assay: Growth inhibition of human M14 cells assessed as cell growth at 10^-6 M by sulforhodamine B assay; settings: read-out: Activity
NCI-H23 [11] = assay: Growth inhibition of human NCI-H23 cells assessed as cell growth at 10^-6 M by sulforhodamine B assay; settings: read-out: Activity
K562 = assay: Growth inhibition of human K562 cells assessed as cell growth at 10^-6 M by sulforhodamine B assay; settings: read-out: Activity
DU-145 = assay: Growth inhibition of human DU145 cells assessed as cell growth at 10^-7 M by sulforhodamine B assay; settings: read-out: Activity
SN12C = assay: Growth inhibition of human SN12C cells assessed as cell growth at 10^-7 M by sulforhodamine B assay; settings: read-out: Activity
RXF 393 [12] = assay: Growth inhibition of human RXF393 cells assessed as cell growth at 10^-7 M by sulforhodamine B assay; settings: read-out: Activity
SNB-19 [13] = assay: Growth inhibition of human SNB19 cells assessed as cell growth at 10^-7 M by sulforhodamine B assay; settings: read-out: Activity
SF-539 = assay: Growth inhibition of human SF539 cells assessed as cell growth at 10^-7 M by sulforhodamine B assay; settings: read-out: Activity
SF-295 = assay: Growth inhibition of human SF295 cells assessed as cell growth at 10^-7 M by sulforhodamine B assay; settings: read-out: Activity
HCT-116 = assay: Growth inhibition of human HCT116 cells assessed as cell growth at 10^-7 M by sulforhodamine B assay; settings: read-out: Activity
T47D [14] = assay: Growth inhibition of human T47D cells assessed as cell growth at 10^-8 M by sulforhodamine B assay; settings: read-out: Activity
PC-3 = assay: Growth inhibition of human PC3 cells assessed as cell growth at 10^-8 M by sulforhodamine B assay; settings: read-out: Activity
OVCAR-5 [15] = assay: Growth inhibition of human OVCAR5 cells assessed as cell growth at 10^-8 M by sulforhodamine B assay; settings: read-out: Activity
[16] = read-out: LC50 (the source's name)
[17] = read-out: pLC50 (the source's name) (converted)

Compound `CC(C)=CC(=O)O[C@@H]1CC(C)(C)C[C@H]2C3=CC[C@@H]4[C@@]5(C)CC[C@H](O)C(C)(C)[C@@H]5CC[C@@]4(C)[C@]3(C)CC[C@@]12C(=O)O` [Reduced Lantadene B] has a growth at 0.01 µM (SNB-19 [1]) of 93%, a growth at 0.01 µM [2] of 99% and a growth at 0.01 µM (NCI-H23 [3]) of 95%. It also gave a growth at 0.01 µM (SR) of 107%, a growth at 0.01 µM (CCRF-CEM) of 103% and a GI50 (T47D [4]; read-out: GI50) of 16.7 µM. It also gave a CC50 (T47D [4]; [16]) greater than 100 µM, a TGI (T47D [4]; read-out: TGI) of 63.4 µM and a GI50 (T47D [4]; read-out: pGI50 (converted)) of 16.6 µM. For the same compound, the CC50 (T47D [4]; [17]) was greater than 100 µM, the TGI (T47D [4]; read-out: pTGI (converted)) was 63.1 µM and the GI50 (A498; read-out: GI50) was 2.83 µM. The CC50 (A498; [16]) was 41.3 µM, the TGI (A498; read-out: TGI) was 13.7 µM and the GI50 (A498; read-out: pGI50 (converted)) was 2.82 µM. The CC50 (A498; [17]) was 41.7 µM, the TGI (A498; read-out: pTGI (converted)) was 13.8 µM and the GI50 (UACC-257; read-out: GI50) was 14.5 µM. It also gave a CC50 (UACC-257; [16]) greater than 100 µM, a TGI (UACC-257; read-out: TGI) of 45.6 µM and a GI50 (UACC-257; read-out: pGI50 (converted)) of 14.5 µM. It also gave a CC50 (UACC-257; [17]) greater than 100 µM, a TGI (UACC-257; read-out: pTGI (converted)) of 45.7 µM and a GI50 (MDA-MB-435; read-out: GI50) of 11.9 µM. It also gave a CC50 (MDA-MB-435; [16]) greater than 100 µM, a TGI (MDA-MB-435; read-out: TGI) of 48.4 µM and a GI50 (MDA-MB-435; read-out: pGI50 (converted)) of 12 µM. The CC50 (MDA-MB-435; [17]) was greater than 100 µM, the TGI (MDA-MB-435; read-out: pTGI (converted)) was 47.9 µM and the growth at 100 µM (SK-OV-3) was -62%. The growth at 100 µM (OVCAR-8) was -40%, the growth at 100 µM (SK-MEL-5) was -64% and the growth at 100 µM (M14 [5]) was -69%. It also gave a growth at 100 µM (LOX IMVI) of -35%, a growth at 100 µM (SNB-75) of -38% and a growth at 100 µM (SNB-19 [6]) of -62%. The growth at 100 µM (COLO 205) was -52%, the growth at 100 µM (HOP-92) was -81% and the growth at 100 µM (RPMI-8226) was -19%. For the same compound, the growth at 1 µM [7] was 92%, the growth at 1 µM (RXF 393 [8]) was 93% and the growth at 1 µM (OVCAR-5 [9]) was 106%. It also gave a growth at 1 µM (M14 [10]) of 89%, a growth at 1 µM (NCI-H23 [11]) of 91% and a growth at 1 µM (K562) of 69%. The growth at 0.1 µM (DU-145) was 100%, the growth at 0.1 µM (SN12C) was 96% and the growth at 0.1 µM (RXF 393 [12]) was 95%. The growth at 0.1 µM (SNB-19 [13]) was 86%, the growth at 0.1 µM (SF-539) was 98% and the growth at 0.1 µM (SF-295) was 80%. It also gave a growth at 0.1 µM (HCT-116) of 94%, a growth at 0.01 µM (T47D [14]) of 93% and a growth at 0.01 µM (PC-3) of 97%. For the same compound, the growth at 0.01 µM (OVCAR-5 [15]) was 95%.
In the case of `CC1(C)C[C@@H](O)[C@]2(C(=O)O)CC[C@]3(C)C(=CC[C@@H]4[C@@]5(C)C/C(=C\C=C\c6ccccc6)C(=O)C(C)(C)[C@@H]5CC[C@]43C)[C@@H]2C1`, the growth at 0.01 µM (SNB-19 [1]) is reported as 94%, the growth at 0.01 µM [2] is reported as 92% and the growth at 0.01 µM (NCI-H23 [3]) is reported as 95%. It also gave a growth at 0.01 µM (SR) of 107%, a growth at 0.01 µM (CCRF-CEM) of 95% and a GI50 (T47D [4]; read-out: GI50) of 3.83 µM. The CC50 (T47D [4]; [16]) was greater than 100 µM, the TGI (T47D [4]; read-out: TGI) was 18.4 µM and the GI50 (T47D [4]; read-out: pGI50 (converted)) was 3.8 µM. For the same compound, the CC50 (T47D [4]; [17]) was greater than 100 µM, the TGI (T47D [4]; read-out: pTGI (converted)) was 18.2 µM and the GI50 (A498; read-out: GI50) was 2.55 µM. It also gave a CC50 (A498; [16]) of 35.2 µM, a TGI (A498; read-out: TGI) of 11.6 µM and a GI50 (A498; read-out: pGI50 (converted)) of 2.57 µM. For the same compound, the CC50 (A498; [17]) was 35.5 µM, the TGI (A498; read-out: pTGI (converted)) was 11.5 µM and the GI50 (UACC-257; read-out: GI50) was 2.62 µM. The CC50 (UACC-257; [16]) was 35.1 µM, the TGI (UACC-257; read-out: TGI) was 9.01 µM and the GI50 (UACC-257; read-out: pGI50 (converted)) was 2.63 µM. For the same compound, the CC50 (UACC-257; [17]) was 35.5 µM, the TGI (UACC-257; read-out: pTGI (converted)) was 8.91 µM and the GI50 (MDA-MB-435; read-out: GI50) was 3.28 µM. For the same compound, the CC50 (MDA-MB-435; [16]) was greater than 100 µM, the TGI (MDA-MB-435; read-out: TGI) was 14.4 µM and the GI50 (MDA-MB-435; read-out: pGI50 (converted)) was 3.31 µM. It also gave a CC50 (MDA-MB-435; [17]) greater than 100 µM, a TGI (MDA-MB-435; read-out: pTGI (converted)) of 14.5 µM and a growth at 100 µM (SK-OV-3) of -84%. For the same compound, the growth at 100 µM (OVCAR-8) was -67%, the growth at 100 µM (SK-MEL-5) was -99% and the growth at 100 µM (M14 [5]) was -77%. The growth at 100 µM (LOX IMVI) was -90%, the growth at 100 µM (SNB-75) was -70% and the growth at 100 µM (SNB-19 [6]) was -91%. It also gave a growth at 100 µM (COLO 205) of -61%, a growth at 100 µM (HOP-92) of -76% and a growth at 100 µM (RPMI-8226) of -6%. It also gave a growth at 1 µM [7] of 87%, a growth at 1 µM (RXF 393 [8]) of 96% and a growth at 1 µM (OVCAR-5 [9]) of 93%. For the same compound, the growth at 1 µM (M14 [10]) was 91%, the growth at 1 µM (NCI-H23 [11]) was 95% and the growth at 1 µM (K562) was 98%. For the same compound, the growth at 0.1 µM (DU-145) was 104%, the growth at 0.1 µM (SN12C) was 98% and the growth at 0.1 µM (RXF 393 [12]) was 94%. The growth at 0.1 µM (SNB-19 [13]) was 89%, the growth at 0.1 µM (SF-539) was 92% and the growth at 0.1 µM (SF-295) was 98%. The growth at 0.1 µM (HCT-116) was 99%, the growth at 0.01 µM (T47D [14]) was 101% and the growth at 0.01 µM (PC-3) was 97%. The growth at 0.01 µM (OVCAR-5 [15]) was 103%.
